Results on 14 molecules are retold here after patent US8236279B2, “Bisaminoethanethiol-targeting ligand conjugates and compositions” (priority 1999, dated 2012).

Entries after “also recorded” stand apart in the source; their conditions may differ.

For data set [1], the system named is Breast Tumor-Bearing Rats (13762 tumor cell line). The data set can be described thus: Tissue distribution (biodistribution) studies in breast tumor-bearing rats. The conditions noted are these: for tumor/blood and tumor/muscle count density ratios, course over time: […] (so in the source); for Biodistribution: Brain / Biodistribution: Heart / Biodistribution: Spleen / Tumor/Blood ratio / Tumor/Liver ratio / Tumor/Muscle ratio: Table 9. Here is the method:
Studies performed 14 to 17 days after implantation when tumors reached approximately 1 cm diameter. Animals were anesthetized with ketamine (10-15 mg/rat, intraperitoneally) before each procedure.
The injected mass of each ligand was 10 μg per rat. At 20 min, 1, 2 and 4 h following administration of the radiopharmaceuticals, the anesthetized animals were sacrificed and the tumor and selected tissues were excised, weighed and counted for radioactivity by a gamma counter (Packard Instruments, Downers Grove, Ill.). The biodistribution of tracer in each sample was calculated as percentage of the injected dose per gram of tissue wet weight (% ID/g). Counts from a diluted sample of the original injectate were used for reference. Tumor/nontarget tissue count density ratios were calculated from the corresponding % ID/g values. Student-t test was used to assess the significance of differences between two groups.
Studies performed 14 to 17 days after implantation when tumors reached approximately 1 cm diameter. Rats were anesthetized with ketamine (10-15 mg/rat, intraperitoneally) before each procedure.
In tissue distribution studies, each animal was injected intravenously with 370-550 KBq of ^99mTc-EC-MN or ^99mTc-EC (n=3/time point). The injected mass of ^99mTc-EC-MN was 10 μg per rat. At 0.5, 2 and 4 hrs following administration of the radiotracers, the rats were sacrificed and the selected tissues were excised, weighed and counted for radioactivity. The biodistribution of tracer in each sample was calculated as percentage of the injected dose per gram of tissue wet weight (% ID/g). Tumor/nontarget tissue count density radios were calculated from the corresponding % ID/g values. […] Student t-test was used to assess the significance of differences between groups.
At 0.5, 2 and 4 hrs following administration of the radiotracers, the rats were sacrificed and the selected tissues were excised, weighed and counted for radioactivity. The biodistribution of tracer in each sample was calculated as percentage of the injected dose per gram of tissue wet weight (% ID/g). Tumor/nontarget tissue count density ratios were calculated from the corresponding % ID/g values. Student t-test was used to assess the significance of differences between groups.
(§1) At 0.5, 2 and 4 hours following administration of the radiotracers, the rats were sacrificed and the selected tissues were excised, weighed and counted for radioactivity. The biodistribution of tracer in each sample was calculated as percentage of the injected dose per gram of tissue wet weight (% ID/g). Tumor/nontarget tissue count density ratios were calculated from the corresponding % ID/g values.
Studies were performed 14 to 17 days after implantation when tumors reached approximately 1 cm diameter. Rats were anesthetized with ketamine (10-15 mg/rat, intraperitoneally) before each procedure.
as §1, with “In tissue distribution studies, each animal was injected intravenously with 10-20 μCi (per rat) or 1-2 μCi (per mouse) of ^99mTc-EC or ^99mTc-EC-DG (n=3/time point). The injected mass of ^99mTc-EC-DG was 1 mg per rat. At” for “At”, “rodents” for “rats”

The conditions of data set [2]: list continues over wrapped lines of the table; cited from earlier work.
A short description of data set [3]: Water solubility. Format: physicochemical.
For data set [4], the system named is breast tumor-bearing rats. The data set can be described thus: Scintigraphic (gamma camera) imaging studies in tumor-bearing rats. In kind it is in vivo. The following applies: different time points (0.5-4 hrs) after i.v. injection.
The subject of data set [5] is two lung cancer cell lines and one breast cell line (A549, H1299, 13762). Nature of the data set: Effect of glucose on cellular uptake. In kind it is cell-based. Here is the method:
Neomycin is known to influence glucose absorption (Rogers et al., 1968; Fanciulli et al., 1994). […] After incubation, the cells were washed with phosphate buffered saline 3 times and followed by trypsin to lose the cells. The cells were then counted by a gamma counter.

The subject of data set [6] is hexokinase. Nature of the data set: Hexokinase assay (glucose phosphorylation). Format: biochemical. The conditions noted are these: UV wavelength 340 nm. Here is the method: To determine if EC-DG mimics glucose phosphorylation, a hexokinase assay was conducted. Using a ready made kit (Sigma Chemical Company), EC-DG, glucosamine and glucose (standard) were assayed at UV wavelength 340 nm.

The subject of data set [7] is A549 lung cancer cell line. The data set can be described thus: In vitro cellular uptake assay. Format: cell-based, human. The following applies: 2 μCi per well, 80,000 cells, incubation 0.5-4 hours. Here is the method: After incubation at 0.5-4 hours, the cells were washed with phosphate buffered saline 3 times and followed by trypsin to lose the cells.
In vitro cellular uptake assay was conducted by using a human lung cancer cell line (A549). Two μCi of ^99mTc-EC-DG and ^18F-FDG were added to wells containing 80,000 cells each. After incubation at 0.5-4 hours, the cells were washed with phosphate buffered saline 3 times and followed by trypsin to lose the cells. The cells were then counted by a gamma counter.

Data set [8] has as its system breast (13762) and lung (A549) cancer cells. The data set can be described thus: Effect of d- and l-glucose on cellular uptake. In kind it is cell-based. The conditions noted are these: 1-2.0 mg/well, 2 hours incubation. Here is the method: To evaluate if the uptake of ^99mTc-EC-deoxyglucose is mediated via d-glucose mechanism, d- and l-glucose (1 mg and 2.0 mg) were added to, each well containing either breast or lung cancer cells (50,000/0.5 ml/well), along with 2 μCi of ^99mTc-EC-deoxyglucose and ^18F-FDG. After 2 hours incubation, the cells were washed with phosphate buffered saline 3 times and followed by trypsin to lose the cells. The cells were counted by a gamma counter.

Data set [9] concerns patients (3 brain tumors and 2 lung diseases). The data set can be described thus: Preliminary clinical imaging studies in patients (brain tumors, lung diseases). In kind it is in vivo, human. The following applies: images 1-2 hours post-administration. Here is the method:
Scintigraphic images, using a gamma camera equipped with low-energy, parallel-hole collimator, were obtained 0.5, 2 and 4 hours after i.v. injection of 100 μCi of the radiotracer. The animal model used was breast tumor-bearing rats. […] Preliminary clinical studies were conducted in 5 patients (3 brain tumors and 2 lung diseases).

Data set [10] can be described thus: Effect of loading on blood glucose level in normal rats. Format: in vivo, Fischer 344 rats. The following applies: insulin (5 units) after 30 minutes. Here is the method: The blood glucose level (mg/dl) was determined by a glucose meter (Glucometer DEX, Bayer Corporation, Elkhart, Ind.). Prior to the study, the baseline of blood glucose level was obtained. […] In a separate experiment, a group of rats was administered EC-deoxyglucose and FDG. Insulin (5 units) was administered after 30 minutes.

Consider `O=[N+]([O-])c1nccn1CC(O)C[18F]` (centres unmarked) [[^18F]FMISO], for which the “tumor-to-blood uptake ratio, comparison among [18F]FMISO, [131I]IMISO and 99mTc-EC-MN” value in data set [1] (30 min, 2 and 4 hrs post-injection) was “highest”. Moreover, the “tumor/blood and tumor/muscle count density ratios, course over time” value in data set [1] is given as “gradually increased”.

With `[O]=[99Tc](=[O])(=[O])[O-]` [^99mTc Pertechnetate], in data set [1] (2 Hour), the “Biodistribution: Brain” value was found to be 0.022 ± 0.002 % ID/g, the “Biodistribution: Heart” value came to 0.145 ± 0.015 % ID/g, the “Biodistribution: Spleen” value was found to be 0.187 ± 0.014 % ID/g and the Tumor/Blood ratio worked out at 0.497 ± 0.073. In [1] (2 Hour), the Tumor/Liver ratio worked out at 1.084 ± 0.115 and the Tumor/Muscle ratio was 4.302 ± 0.093. In [1] (4 Hour), the “Biodistribution: Brain” value is on record as 0.031 ± 0.009 % ID/g, the “Biodistribution: Heart” value worked out at 0.166 ± 0.012 % ID/g, the “Biodistribution: Spleen” value is 0.225 ± 0.017 % ID/g and the Tumor/Blood ratio amounted to 0.597 ± 0.144. Besides, in data set [1] (4 Hour), the Tumor/Liver ratio was 0.865 ± 0.270 and the Tumor/Muscle ratio is 6.689 ± 1.458. Also, in data set [1] (30 Min.), the “Biodistribution: Brain” value was 0.038 ± 0.014 % ID/g, the “Biodistribution: Heart” value turned out to be 0.275 ± 0.089 % ID/g, the “Biodistribution: Spleen” value worked out at 0.331 ± 0.108 % ID/g and the Tumor/Blood ratio stood at 0.472 ± 0.093. In addition, in [1] (30 Min.), the Tumor/Liver ratio turned out to be 1.084 ± 0.023 and the Tumor/Muscle ratio came out at 4.788 ± 0.833.

Consider Aldesleukin, for which, in data set [2], the “Acute Toxicity” value was “Fever; fluid retention; hypertension;” and the Delayed toxicity entry was “Neuropsychiatric disorders;”.

For the molecule `CCC1(c2ccc(N)cc2)CCC(=O)NC1=O` (centres unmarked) [Aminogiutethimide], in data set [2], the “Acute Toxicity” value is on record as “Drowsiness; nausea; dizziness; rash” and the Delayed toxicity entry is “Hypothryroidism (rare); bone”.

In the case of L,L-ethylenedicysteine [EC], the water solubility result in data set [3] is on record as “water soluble”.

With `O=C(O)[C@@H]1C[S][99Tc]23(=[O])[S]C[C@@H](C(=O)O)[N]2CC[N]13` [^99mTc-EC, ^99mTc-L,L-ethylenedicysteine], the “Scintigraphic images: visualization of tumor / tumor uptake” value in [4] is listed as “no apparent tumor uptake; also recorded: less tumor uptake”. In data set [5], the “cellular uptake of control” value was “no uptake”. In data set [1] (20 min-4 h), the “tumor/blood count density ratios, course over time” value is “decreased”. In addition, the “tumor/blood and tumor/muscle count density ratios, course over time” value in [1] is listed as “did not alter”. Also, in [1] (same time period (0.5-4 hours)), the “tumor-to-blood and tumor-to-muscle values, course over time” value is listed as “time-dependent decrease”.

Regarding `N[C@H]1C(O)O[C@H](CO)[C@@H](O)[C@@H]1O` (some centres unmarked) [glucosamine], the hexokinase assay result in data set [6] is recorded as “positive”.

As to `COc1cc(NS(C)(=O)=O)ccc1Nc1c2ccccc2nc2ccccc12` [Amsacrine], in data set [2], the Delayed toxicity entry is “Bone marrow depression;”.

For `O=[N+]([O-])c1nccn1CC(O)C[131I]` (centres unmarked) [[^131I]IMISO], the “Tumor/blood and tumor/muscle ratios, 99mTc-EC-MN versus [131I]IMISO” value in data set [1] (2 and 4 hrs postinjection, (p<0.05) as printed) was “not significantly different”. Also, in data set [1], the “tumor/blood and tumor/muscle count density ratios, course over time” value is given as “gradually increased”.

For `O=C(N[C@H]1C(O)O[C@H](CO)[C@@H](O)[C@@H]1O)[C@@H]1C[S][Tc]23(=[O])[S]C[C@@H](C(=O)N[C@H]4C(O)O[C@H](CO)[C@@H](O)[C@@H]4O)[N]2CC[N]13` (some centres unmarked) [^99mTc-EC-DG], the “Scintigraphic images: visualization of tumor / tumor uptake” value in [4] was “visualized well”. In addition, the “Scintigraphic images: visualization of tumor / tumor uptake” value in [4] (listed as 99mTc-EC-deoxyglucose) was “well visualized”. Moreover, the “tumor-to tissue ratios, course over time, compared to 99mTc-EC and free technetium” value in [1] (0.5-4 hours) was “increased as a function of time”. In data set [7], the cellular uptake entry was “comparable to FDG”. Besides, in data set [8], the “effect of d-glucose on cellular uptake” value was “decreased uptake” and the “effect of l-glucose on cellular uptake” value is “no influence”. For the same molecule, in data set [9], the “differentiation of benign versus malignant tumors” value is on record as “able to differentiate benign versus malignant tumors”, the “uptake in benign meningioma” value was “no focal intensed uptake; also recorded: poor uptake”, the “uptake in lung tumor” value is reported as “focal intensed uptake; also recorded: high uptake” and the “uptake in malignant astrocytoma” value is “high uptake”. Moreover, in data set [9], the “uptake in patient with TB” value is “no focal intensed uptake; also recorded: Poor uptake”.

Turning to `OC[C@H]1OC(O)[C@H]([18F])[C@@H](O)[C@@H]1O` (some centres unmarked) [^18F-FDG], in [8], the “effect of d-glucose on cellular uptake” value is “decreased uptake” and the “effect of l-glucose on cellular uptake” value is listed as “no influence”.

As for `OC[C@H]1OC(O)[C@H](F)[C@@H](O)[C@@H]1O` (some centres unmarked) [FDG], the “increased blood glucose level on co-administration with insulin” value in data set [10] was “suppressed”.

As for `OC[C@H]1OC(O)[C@H](O)[C@@H](O)[C@@H]1O` (some centres unmarked) [Glucose], the hexokinase assay entry in data set [6] is given as “positive”.

B1: Asparaginase: anticancer drug listed in Table 2 (protein, UniProt P00805 23-348, looked up)
L-asparaginase 2: LPNITILATGGTIAGGGDSATKSNYTVGKVGVENLVNAVPQLKDIANVKGEQVVNIGSQDMNDNVWLTLAKKINTDCDKTDGFVITHGTDTMEETAYFLDLTVKCDKPVVMVGAMRPSTSMSADGPFNLYNAVVTAADKASANRGVLVVMNDTVLDGRDVTKTNTTDVATFKSVNYGPLGYIHNGKIDYQRTPARKHTSDTPFDVSKLNELPKVGIVYNYANASDLPAKALVDAGYDGIVSAGVGNGNLYKSVFDTLATAAKTGTAVVRSSRVPTGATTQDAEVDDAKYGFVASGTLNPQKARVLLQLALTQTKDPQQIQQIFNQY
In the case of B1, in data set [2], the “Acute Toxicity” value was “Nausea and vomiting; fever; chills;”.
